Source: patent US20240066006A1, “Antiviral Compounds and Applications Thereof” (priority 2020, published 2024)
Like-named read-outs stand apart in the source and are kept apart here.

Legend:
[1] = test system: MHV-1; assay: Syncytium formation in DBT cells infected with MHV-1 (microscopy images); format: cell-based, murine hepatitis virus; conditions: for inhibitory effect on syncytium formation and cell-cell fusion / inhibitory effect on syncytium formation and fusion: DBT cells pre-treated three hours, 893 10 μM, images at 48 hours; for inhibitory effect on syncytium formation and cell-cell fusion: NAV2729 5 μM, SecinH3 30 μM; for inhibitory effect on syncytium formation and fusion: YM201636 400 nM, apilimod 50 nM; for syncytium formation induced by MHV-1: DBT cells, 4 μM
[2] = test system: MHV-1; assay: Viral titer by plaque assay, DBT cells infected with MHV-1; format: cell-based, murine hepatitis virus
[3] = test system: MHV-A59; format: cell-based, murine hepatitis virus; conditions: DBT cells, MOI 0.1, plaque assay at 24 or 48 hours
[4] = test system: MHV-1; assay: MHV-1 intranasal infection of male A/J mice, lung viral titer and lung weight; conditions: 120 mg/kg by gavage 6 hours prior to and 18 hours after infection, 500 pfu MHV-1 intranasally, 24 hours post-infection
[5] = Resistance to metabolism
[6] = test system: ACE2 receptor; format: cell-based; conditions: pre-treated VeroE6 cells
[7] = test system: endolysosomal trafficking; assay: Inhibition of endolysosomal trafficking in vitro; format: cell-based
[8] = test system: MHV-A59; assay: Syncytium formation in DBT cells infected with MHV-A59 (phase contrast microscopy); format: cell-based, murine hepatitis virus; conditions: 4 μM, MOI 0.1, 24 hours post infection
Procedure: To determine whether PP2A activation mitigates syncytium formation induced by coronaviruses, DBT cells were treated with 4 μM of compound 893 before or after infection with MHV-A59 at a multiplicity of infection (MOI) of 0.1 and then assessed for syncytium formation via phase contrast microscopy 24 hours post infection.

[9] = Serum protein binding; format: in vitro ADME
[10] = Pharmacokinetics and tissue levels upon oral administration
[11] = in vivo; conditions: po
[12] = in vivo
[13] = DBT cells pre-treated three hours, 893 10 μM, NAV2729 5 μM, SecinH3 30 μM, plaque assay 48 hours post infection
[14] = after viral infection (post-treatment)

OCCN1CCN(CCCN2c3ccccc3Sc3ccc(Cl)cc32)CC1 [PPZ, perphenazine, reference compound]
syncytium formation and fusion ([1]; DBT cells infected with MHV-1, pretreatment with PP2A agonist): as efficiently as compound 893 | reduction of viral titers of MHV-1 ([2]; DBT cells, pretreatment with PP2A agonist): to a degree similar to that of compound 893

COc1nc(-c2ccc3c(c2)OCO3)n(-c2ccc(NC(=O)CSc3ccccc3)cc2)n1 [SecinH3, reference compound]
inhibitory effect on syncytium formation and cell-cell fusion [1]: inhibitory effect | reduction of viral titers of MHV-1 [2, 13]: about 1 log

Nc1ccc(C(=O)Nc2cccc(-c3nc(N4CCOCC4)c4oc5ncccc5c4n3)c2)cn1 [YM201636]
inhibitory effect on syncytium formation and fusion [1]: inhibitory effect

Cc1cccc(/C=N/Nc2cc(N3CCOCC3)nc(OCCc3ccccn3)n2)c1 [apilimod]
inhibitory effect on syncytium formation and fusion [1]: inhibitory effect

CCCCCCCCc1ccc([C@H]2CCN[C@@H]2CO)cc1.Cl [compound 893]
reduction of viral titers of MHV-A59 ([3]; 4-5 μM added one hour after infection): 3-4 logs | reduction of viral titers of MHV-A59 ([3]; 4-5 μM for three hours prior to infection, washed 1 hour after infection): 3-4 logs | lung weight [4]: reduced lung weight | reduction in infectious virus within the lungs [4]: 2 log | resistance to metabolism [5]: resistant to metabolism | inhibitory effect on syncytium formation and cell-cell fusion [1]: inhibitory effect | inhibitory effect on syncytium formation and fusion [1]: greater for 893 than for YM201636 or apilimod | syncytium formation induced by MHV-1 [1, 14]: potently prevented syncytium formation | syncytium formation induced by MHV-1 ([1]; pre-treatment): potently prevented syncytium formation | reduction of viral titers of MHV-1 [2, 13]: ~3 log | reduction of viral titers of MHV-1 ([2]; DBT cells pre-treated three hours, 893 10 μM, YM201636 400 nM, apilimod 50 nM, plaque assay 48 hours post infection): ~3 logs | reduction of viral titers of MHV-1 ([2]; DBT cells, 4-5 μM added one hour after infection, MOI 0.1, plaque assay at 24 or 48 hours): 3-4 logs | reduction of viral titers of MHV-1 ([2]; DBT cells, 4-5 μM for three hours prior to infection, MOI 0.1, washed 1 hour after infection, plaque assay at 24 or 48 hours): 3-4 logs | ACE2 receptor localization at the outer cell membrane [6]: reduction of ACE2 receptor localization at the outer cell membrane | concentration required to inhibit endolysosomal trafficking [7]: 1 to 10 µM | syncytium formation induced by MHV-A59 [8, 14]: potently prevented syncytium formation | syncytium formation induced by MHV-A59 ([8]; pre-treatment): potently prevented syncytium formation | binding by serum proteins [9]: highly bound by serum proteins | total drug levels in the lungs relative to concentration required in vitro ([10]; compared with 1-10 μM required in vitro): 300 fold | concentration at 5 days ([10]; lungs, brain, liver (many tissues), po, 120 mg/kg): > 100 µM | half-life [11]: 10.6 h | oral bioavailability [12]: orally bioavailable

NAV2729 [reference compound]
inhibitory effect on syncytium formation and cell-cell fusion [1]: inhibitory effect | reduction of viral titers of MHV-1 [2, 13]: about 1 log
